# Data from patent publication US4206224A, “Treatment of infections” (Beecham Group Limited, priority 1976, dated 1980).
# “Also recorded” adds a separate entry of the source. Counter-ions that a name gives are not always drawn.
# Columns and labels:
# M. synoviae 25204 = assay: Antimycoplasmal MIC, metabolic-inhibition test, M. synoviae 25204; format: cell-based; settings: Mycoplasmopsis synoviae, 168 h, dilutions 250-0.5 μg/ml, 37° C., seven days, read-out: MIC (in vitro antimycoplasmal activity)
# M. dispar H225 = assay: Antimycoplasmal MIC, metabolic-inhibition test, M. dispar H225; format: cell-based; settings: 168 h, dilutions 250-0.5 μg/ml, 37° C., seven days, read-out: MIC (in vitro antimycoplasmal activity)
# [1] = test system: mycoplasmas from human and veterinary sources; assay: Antimycoplasmal activity in vitro, overall; format: cell-based
# Method: 1. The minimal inhibitory concentrations (MIC) of pseudomonic acid and methyl pseudomonate were determined in Microtitre plates, by a modification of the metabolic-inhibition test (Taylor-Robinson, 1967). The compounds were serially diluted in sterile de-ionised water to give a range of concentrations from 250-0.5 μg/ml. Mycoplasma broth containing 1% (w/v) of glucose and 0.005% (w/v) of phenon red, was added at a strength to compensate for its dilution by the aqueous drug solution. Approximately 10^4 colony forming units of mycoplasma were added to each concentration of drug. Drug-free infected, noninfected and pH control wells were included on each plate. Plates were sealed with cellotape and incubated at 37° C. for seven days. The MIC was the lowest concentration of compound that prevented a colour change in the mycoplasma broth, caused by the metabolism of glucose by the mycoplasmas.
# M. suipneumoniae (Laber) = assay: Antimycoplasmal MIC, metabolic-inhibition test, M. suipneumoniae (Laber); format: cell-based; settings: Mesomycoplasma hyopneumoniae, 168 h, dilutions 250-0.5 μg/ml, 37° C., seven days, read-out: MIC (in vitro antimycoplasmal activity)
# M. bovis 25025 = assay: microbe, parasite or virus in culture; format: cell-based; settings: 25025, 168 h, read-out: MIC (in vitro antimycoplasmal activity)
# M. gallisepticum S6 = assay: Antimycoplasmal MIC, metabolic-inhibition test, M. gallisepticum S6; format: cell-based; settings: Mycoplasmoides gallisepticum, 168 h, dilutions 250-0.5 μg/ml, 37° C., seven days, read-out: MIC (in vitro antimycoplasmal activity)
# M. pulmonis 'JB' [2] = assay: Antimycoplasmal MIC, metabolic-inhibition test, M. pulmonis 'JB'; format: cell-based; settings: Mycoplasmopsis pulmonis, 168 h, dilutions 250-0.5 μg/ml, 37° C., seven days, read-out: MIC (in vitro antimycoplasmal activity)
# M. fermentans MW KL 4 = assay: Antimycoplasmal MIC, metabolic-inhibition test, M. fermentans MW KL 4; format: cell-based; settings: Mycoplasmopsis fermentans, MWKL4, 168 h, dilutions 250-0.5 μg/ml, 37° C., seven days, read-out: MIC (in vitro antimycoplasmal activity)
# M. pneumoniae 427 a = assay: Antimycoplasmal MIC, metabolic-inhibition test, M. pneumoniae 427 a; format: cell-based; settings: Mycoplasmoides pneumoniae, 168 h, dilutions 250-0.5 μg/ml, 37° C., seven days, read-out: MIC (in vitro antimycoplasmal activity)
# Pasteurella multocida = assay: Antibacterial activity, Pasteurella multocida; format: cell-based
# Haemophilus influenzae = assay: Antibacterial spectrum (MIC), Haemophilus influenzae; format: cell-based
# Staphylococcus aureus = assay: Antibacterial spectrum (MIC), Staphylococcus aureus; format: cell-based
# Toxicity (LD50), rat = format: in vivo; settings: for LD50: in vivo
# [3] = test system: Staphylococcus epidermidis; assay: Antibacterial spectrum (MIC), Staphylococcus epidermidis; format: cell-based
# Neisseria meningitidis = assay: Antibacterial spectrum (MIC), Neisseria meningitidis; format: cell-based
# [4] = Blood and urinary excretion levels, rat; format: in vivo; settings: 100 mg/kg; for Cmax: blood, read-out: Peak Level (blood); for dose excreted: urine, read-out: Urinary Recovery
# Description: (§1) The results of administering pseudomonic acid to four different animal species are shown in Table 2 in terms of peak blood levels and urinary recovery.
# Toxicity (LD50), mouse = format: in vivo; settings: for LD50: in vivo
# Gram-negative bacilli = assay: Antibacterial spectrum (MIC), Gram-negative bacilli
# [5] = Blood and urinary excretion levels, dog; format: in vivo; settings: 100 mg/kg; for Cmax: blood, read-out: Peak Level (blood); for dose excreted: urine, read-out: Urinary Recovery
# Description: as §1
# [6] = test system: Bordetella bronchiseptica; assay: Antibacterial activity, Bordetella bronchiseptica; format: cell-based
# M. synoviae ATCC 25204 = assay: M. synoviae-induced airsacculitis of chicken; format: in vivo, chicken (white leghorn chicks) infected with M. synoviae
# Method: 3. M. synoviae-induced airsacculitis of chicken 0.5 ml volumes of a broth culture containing about 10^8 CFU of M. synoviae ATCC No. 25204 were injected into the left abdominal air sacs of groups of five, one week old, specific pathogen free (SPF) white leghorn chicks. […] Seven days after infection the chicks were autopsied and the air sacs were examined macroscopically for mycoplasmal lesions and microbiologically for the presence of M. synoviae.
# streptococci = assay: Antibacterial spectrum, streptococci; format: cell-based; settings: most streptococci
# Streptococcus pneumoniae = assay: Antibacterial spectrum (MIC), Streptococcus pneumoniae; format: cell-based
# [7] = Blood and urinary excretion levels, squirrel monkey; format: in vivo; settings: 100 mg/kg; for Cmax: blood, read-out: Peak Level (blood); for dose excreted: urine, read-out: Urinary Recovery
# Description: as §1
# Streptococcus faecalis = assay: Antibacterial spectrum (MIC), Streptococcus faecalis; format: cell-based; settings: Enterococcus faecalis
# [8] = Blood and urinary excretion levels, mouse; format: in vivo; settings: 50 mg/kg; for Cmax: blood, read-out: Peak Level (blood); for dose excreted: urine, read-out: Urinary Recovery
# Description: as §1
# M. pulmonis 'JB' [9] = assay: M. pulmonis-induced arthritis of mice; settings: for Number of mice with arthritis/total number mice: 200 mg/kg × 5 s.c.; for prevented the development of arthritis: 200 mg/kg s.c. daily, five consecutive days
# Streptococcus pyogenes = assay: Antibacterial spectrum (MIC), Streptococcus pyogenes; format: cell-based
# staphylococci = assay: Antibacterial spectrum, staphylococci; format: cell-based
# Neisseria gonorrhoeae = assay: Antibacterial spectrum (MIC), Neisseria gonorrhoeae; format: cell-based
# Mycoplasma species = assay: Antibacterial spectrum (MIC), Mycoplasma species
compound,measurement,setting,value
C/C(=C\C(=O)OCCCCCCCCC(=O)O)C[C@@H]1OC[C@H](C[C@@H]2O[C@H]2[C@@H](C)[C@H](C)O)[C@@H](O)[C@H]1O [Pseudomonic acid (Na salt)],MIC,M. synoviae 25204,< 0.5 µg/mL
same,MIC,M. dispar H225,< 0.5 µg/mL
same,antimycoplasmal activity in vitro (in words),[1],good antimycoplasmal activity in vitro
same,MIC,M. suipneumoniae (Laber),1.9 to 3.9 µg/mL
same,MIC,M. bovis 25025,< 0.5 µg/mL
same,MIC,M. gallisepticum S6,7.8 µg/mL
same,MIC,M. pulmonis 'JB' [2],< 0.5 µg/mL
same,MIC,M. fermentans MW KL 4,< 0.5 µg/mL
same,MIC,M. pneumoniae 427 a,< 0.5 µg/mL
C/C(=C\C(=O)OCCCCCCCCC(=O)O)C[C@@H]1OC[C@H](C[C@@H]2O[C@H]2[C@@H](C)[C@H](C)O)[C@@H](O)[C@H]1O [Pseudomonic acid],antibacterial activity (in words),Pasteurella multocida,has activity
same,MIC,Haemophilus influenzae,0.12 µg/mL
same,antibacterial activity / susceptibility (in words),Haemophilus influenzae; including strains resistant to other antibiotics,very susceptible; also recorded: particularly high activity
same,MIC,Staphylococcus aureus,0.25 µg/mL
same,LD50,"Toxicity (LD50), rat; iv",1310 to 2560 mg/kg
same,LD50,"Toxicity (LD50), rat; po",5000 mg/kg
same,LD50,"Toxicity (LD50), rat; sc",5000 mg/kg
same,toxicity (in words),"Toxicity (LD50), rat; three routes",low degree of toxicity
same,MIC,[3],0.25 µg/mL
same,MIC,Neisseria meningitidis,0.02 µg/mL
same,Cmax,[4]; im,15800 ng/mL
same,Cmax,[4]; iv,66700 ng/mL
same,dose excreted,[4]; im,< 1%
same,dose excreted,[4]; iv,< 1%
same,LD50,"Toxicity (LD50), mouse; iv",1640 to 2050 mg/kg
same,LD50,"Toxicity (LD50), mouse; p.c. (so in the source)",5000 mg/kg
same,LD50,"Toxicity (LD50), mouse; sc",4000 to 5000 mg/kg
same,toxicity (in words),"Toxicity (LD50), mouse; three routes",low degree of toxicity
same,antibacterial activity (in words),Gram-negative bacilli,relatively inactive
same,Cmax,[5]; im,25300 ng/mL
same,Cmax,[5]; po,3600 ng/mL
same,dose excreted,[5]; im,1%
same,dose excreted,[5]; po,< 1%
same,antibacterial activity (in words),[6],has activity
same,prevented the development of airsac lesions,M. synoviae ATCC 25204; 200 mg/kg i.m. twice per day,four out of five birds
same,re-isolation of M. synoviae from airsacs (in words),M. synoviae ATCC 25204; 200 mg/kg i.m. twice per day,not re-isolated from the airsacs of any
same,Number birds protected/total,"M. synoviae ATCC 25204; 200 mg/kg × 7 i.m., autopsy seven days after infection",4/5
same,Number of birds from which M. synoviae was re-isolated,"M. synoviae ATCC 25204; 200 mg/kg × 7 i.m., seven days after infection",0
same,activity in vivo in experimentally induced mycoplasmal infection (in words),M. synoviae ATCC 25204; chicken,active in vivo
same,antibacterial activity (in words),streptococci,good activity
same,MIC,Streptococcus pneumoniae,0.12 µg/mL
same,Cmax,[7]; im,40000 ng/mL
same,Cmax,[7]; po,26800 ng/mL
same,dose excreted,[7]; im,2%
same,dose excreted,[7]; po,1.5%
same,MIC,Streptococcus faecalis,50 µg/mL
same,Cmax,[8]; po,< 1000 ng/mL
same,Cmax,[8]; sc,7200 ng/mL
same,dose excreted,[8]; po,< 1%
same,dose excreted,[8]; sc,< 1%
same,Number of mice with arthritis/total number mice,"M. pulmonis 'JB' [9]; Expt 1, day 3 after infection",0/6
same,Number of mice with arthritis/total number mice,"M. pulmonis 'JB' [9]; Expt 1, day 7 after infection",1/5
same,Number of mice with arthritis/total number mice,"M. pulmonis 'JB' [9]; Expt 1, day 10 after infection",1/5
same,Number of mice with arthritis/total number mice,"M. pulmonis 'JB' [9]; Expt 1, day 14 after infection",1/5
same,Number of mice with arthritis/total number mice,"M. pulmonis 'JB' [9]; Expt 2, day 3 after infection",0/8
same,Number of mice with arthritis/total number mice,"M. pulmonis 'JB' [9]; Expt 2, day 8 after infection",2/8
same,Number of mice with arthritis/total number mice,"M. pulmonis 'JB' [9]; Expt 2, day 10 after infection",2/8
same,Number of mice with arthritis/total number mice,"M. pulmonis 'JB' [9]; Expt 2, day 14 after infection",4/8
same,prevented the development of arthritis,M. pulmonis 'JB' [9]; first experiment,four out of five mice
same,activity in vivo in experimentally induced mycoplasmal infection (in words),M. pulmonis 'JB' [9]; mice,active in vivo
same,prevented the development of arthritis,M. pulmonis 'JB' [9]; second experiment,four out of eight mice
same,MIC,Streptococcus pyogenes,0.25 µg/mL
same,antibacterial activity (in words),staphylococci,good activity
same,MIC,Neisseria gonorrhoeae; Neisseria gonorrhoeae,0.01 µg/mL
same,antibacterial activity / susceptibility (in words),"Neisseria gonorrhoeae; Neisseria gonorrhoeae (gonococci), including strains resistant to other antibiotics",very susceptible; also recorded: particularly high activity
same,antimycoplasmal activity / sensitivity (in words),"Mycoplasma species; Mycoplasma sp, b37: most mycoplasma species",very sensitive; also recorded: particularly high activity
same,MIC,Mycoplasma species; Mycoplasma species,<0.01 to 25 µg/mL
COC(=O)CCCCCCCCOC(=O)/C=C(\C)C[C@@H]1OC[C@H](C[C@@H]2O[C@H]2[C@@H](C)[C@H](C)O)[C@@H](O)[C@H]1O [methyl pseudomonate],MIC,M. synoviae 25204,< 0.5 µg/mL
same,MIC,M. dispar H225,< 0.5 µg/mL
same,antimycoplasmal activity in vitro (in words),[1],good antimycoplasmal activity in vitro
same,MIC,M. suipneumoniae (Laber),7.8 µg/mL
same,MIC,M. bovis 25025,< 0.5 µg/mL
same,MIC,M. gallisepticum S6,15.6 µg/mL
same,MIC,M. pulmonis 'JB' [2],< 0.5 µg/mL
same,MIC,M. fermentans MW KL 4,< 0.5 µg/mL
same,MIC,M. pneumoniae 427 a,7.8 µg/mL
